Assay results from ChEMBL document CHEMBL5729782, “6-heteroaryloxy benzimidazoles and azabenzimidazoles as JAK2 inhibitors” (2023).
Several values for one entry are separate records, joined by “and”; a condition that tells them apart may be missing. Equal entries are not always repeated.

Assay: Streptavidin-coated magnetic beads were treated with biotinylated small molecule ligands for 30 minutes at room temperature to generate affinity resins for kinase assays. The liganded beads were blocked with excess biotin and washed with blocking buffer (SeaBlock (Pierce), 1% BSA, 0.05% Tween 20, 1 mmol/L DTT) to remove unbound ligand and to reduce nonspecific phage binding. Binding reactions were assembled by combining kinases, liganded affinity beads, and test compounds in 1× binding buffer (1×PBS, 0.05% Tween 20, 0.1% BSA, 1 mmol/L DTT). Test compound was prepared as 111× stocks in 100% DMSO and directly diluted into the assay wells. All reactions were performed in polypropylene 384-well plates in a final volume of 0.02 mL. The assay plates were incubated at room temperature with shaking for 1 hour and the affinity beads were washed with wash buffer (1×PBS, 0.05% Tween 20). The beads were then re-suspended in elution buffer (1×PBS, 0.05% Tween 20, 0.5 μmol/L non-biotinylated affinity ligand) and incubated at room temperature with shaking for 30 minutes. The kinase concentration in the eluate was measured by qPCR.

## CC(=O)Nc1cc(Oc2cnc3nc(Nc4cc(C(C)(C)C)n([C@H]5CCC[C@@H]5O)n4)n(C)c3c2)ccn1
  Kd: in the range around 30 nM

## CC(=O)Nc1cc(Oc2cnc3nc(Nc4cc(C5CC5)cn(C)c4=O)n(C)c3c2Cl)ccn1
  Kd: in the range around 30 nM

## COc1c(Oc2ccnc(NC(=O)C3CC3)c2)cnc2nc(Nc3cc(C(C)(C)C)n(C[C@H](C)O)n3)n(C)c12
  Kd: < 10 nM

## CC(=O)Nc1ccc(Oc2cnc3c(c2)nc(Nc2cc(C(C)(C)C)n([C@H]4CCOC4)n2)n3C)cn1
  Kd: < 10 nM

## CCCCO[C@H]1C[C@@H](n2nc(Nc3nc4ccc(Oc5ccnc(NC(C)=O)c5)cc4n3C)cc2C(C)(C)C)C1
  Kd: < 10 nM

## CC(=O)Nc1cc(Oc2ccc3nc(Nc4cc(C(F)(F)F)cn(C[C@@H]5COCCO5)c4=O)n(C)c3c2)ccn1
  Kd: in the range around 525 nM

## CNC(=O)c1cc(Oc2ccc3nc(Nc4cc(C(C)(C)C)nn4C)n(C)c3c2)ccn1
  Kd: in the range around 525 nM

## COc1c(Oc2ccnc(NC(=O)C3CC3)c2)cnc2nc(Cc3cc(C4CC4)cn(C)c3=O)n(C)c12
  Kd: < 10 nM

## COCCN1CC[C@@H](n2nc(NC3Nc4ncc(Oc5ccnc(NC(=O)C6CC6)c5)c(Cl)c4N3C)cc2C(C)(C)C)C1 (some centres not stated)
  Kd: < 10 nM

## COc1c(Oc2ccnc(NC(=O)C3CC3)c2)cnc2nc(Nc3cc(C(C)(C)C)n(C[C@@H](C)O)n3)n(C)c12
  Kd: < 10 nM

## CO[C@H]1CCC1Cn1cc(C2CC2)cc(Nc2nc3ccc(Oc4ccnc(NC(C)=O)c4)cc3n2C)c1=O (some centres not stated)
  Kd: < 10 nM

## CC(=O)Nc1cc(Oc2cnc3nc(NC4=CC(C(F)(F)F)=CC(C)C4=O)n(C)c3c2Cl)ccn1 (configuration not stated)
  Kd: < 10 nM

## CC(=O)Nc1cc(Oc2cnc3nc(Nc4cc(C(C)C)n(CCF)n4)n(C)c3c2)ccn1
  Kd: < 10 nM

## COc1c(Oc2ccnc(NC(C)=O)c2)cnc2nc(Nc3nc([C@H]4CCOC4)c(C(C)(C)C)s3)n(C)c12
  Kd: < 10 nM

## CC(=O)Nc1cc(Oc2cnc3nc(Nc4cc(C(C)C)n(CCC#N)n4)n(C)c3c2C)ccn1
  Kd: < 10 nM

## COc1c(Oc2ccnc(NC(C)=O)c2)cnc2nc(Nc3nc([C@@H]4CCOC4)c(C(C)(C)C)s3)n(C)c12
  Kd: < 10 nM

## CO[C@H]1CCOC[C@@H]1n1cc(C(F)(F)F)cc(Nc2nc3ccc(Oc4ccnc(NC(C)=O)c4)cc3n2C)c1=O
  Kd: < 10 nM

## CNc1cc(Oc2ccnc(NC(C)=O)c2)cnc1NC(=S)Nc1cc2n(n1)CCCC2(C)C
  Kd: < 10 nM

## CC(=O)Nc1cc(Oc2cnc3nc(Nc4cc(C(C)C)n(CC(F)F)n4)n(C)c3c2)ccn1
  Kd: < 10 nM

## CC(C)(C)OC(=O)N1CC2(CC(n3nc(C(F)(F)F)cc3N)C2)C1
  Kd: < 10 nM

## CC(=O)Nc1cc(Oc2cnc3nc(Nc4cc5n(n4)CCCC5(C)C)n(C)c3c2Cl)ccn1
  Kd: < 10 nM

## CC(=O)Nc1cc(Oc2ccc3nc(Nc4cc(C5CC5)cn(CC5CC[C@@H]5O)c4=O)n(C)c3c2)ccn1 (some centres not stated)
  Kd: < 10 nM

## COc1ccc(Cn2cc(Cc3ccc(Nc4nc5ccc(Oc6ccnc(NC(C)=O)c6)cc5n4C)cc3C(F)(F)F)cn2)cc1
  Kd: in the range around 525 nM

## CC(=O)Nc1cc(Oc2cnc3nc(Nc4cc(C(C)(C)C)n(C[C@H]5CCN(C)CC5(F)F)n4)n(C)c3c2)ccn1
  Kd: in the range around 3000 nM

## COc1c(Oc2ccnc(NC(C)=O)c2)cnc2nc(Nc3cc(C(C)(C)C)n(-c4ccn(CC(F)F)c4)n3)n(C)c12
  Kd: < 10 nM

## CC(=O)Nc1cc(Oc2ccc3nc(Nc4cc(C5CC5)cn(C5CCC5O)c4=O)n(C)c3c2)ccn1 (configuration not stated)
  Kd: < 10 nM (3×) and in the range around 30 nM

## CNc1cc(Oc2ccnc(NC(C)=O)c2)cnc1NC(=S)Nc1cc(C2CC2)cn(C)c1=O
  Kd: < 10 nM
